Entries after “also recorded” stand apart in the source; their conditions may differ. Each block holds one compound with its values, some of them ahead of it.
Columns and labels:
Assay type in all cases: physicochemical
[1] = Evaluation of stability (stressed conditions) depending on generation of related substances, HPLC (USP); conditions: for related substance generated: FIG. 1c
Protocol: In order to evaluate stability (stressed conditions), according to the ICH guidelines, tenofovir disoproxil edisylate of the present invention (Example 1: TDE) and tenofovir disoproxil fumarate (Comparative Example 1: TDF) as a control group were used, and analyzed using high-perfoiinance liquid chromatography (HPLC) as set forth in the U.S. Pharmacopeia (USP). The results are shown in Table 1 below (stressed conditions: 60±2° C.).
The tenofovir disoproxil hemi-edisylate of the present invention (Example 1: TDE (hemi salt)), serving as a test group, and tenofovir disoproxil mono-edisylate (Comparative Example 2: TDE (mono salt)), serving as a control group, were evaluated for stability for 3 weeks in the same manner as in (1) above.

[2] = Evaluation of saturation solubility; parameters: saturation solubility: unit not given here; conditions: for solubility: thermodynamic from solid
Protocol: The saturation solubility of the tenofovir disoproxil hemi-edisylate of the present invention (Example 1) and the tenofovir disoproxil fumarate salt (Comparative Example 1) as a control group were evaluated.

[3] = Evaluation of stability depending on changes in pH; conditions: deionized water and pH 1.2, 4.0, 6.8 buffers, 30° C., HPLC, FIGS. 2 and 3
Protocol: When a drug is orally administered, it is absorbed in vivo through the stomach, duodenum, small intestine, etc. […] In the present invention, stability was measured using deionized water and three different pH buffer solutions (at pH 1.2, 4.0, and 6.8) for release testing. A test method was performed in a manner in which 5 mg of each of the tenofovir disoproxil hemi-edisylate of the present invention and the tenofovir disoproxil fumarate as a control group was accurately weighed, completely dissolved in 1 mL of a mixture of acetonitrile and water (1:19), and then added with 9 mL of each of the above pH buffer solutions. The individual samples thus prepared were placed in a chamber at 30° C. and changes in the amounts thereof over time were quantified using HPLC.

[4] = stressed conditions 60±2° C., 7 days
[5] = stressed conditions 60±2° C., 14 days
[6] = stressed conditions 60±2° C., 21 days
[7] = stressed conditions 60±2° C., Initial

Compound: 9-[(R)-2-[[bis[[(isopropoxycarbonyl)oxy]methoxy]phosphinyl]methoxy]propyl]adenine hemiedisylate [TDE]
stability under stressed conditions (in words) ([1]; stressed conditions 60±2° C., 3 weeks, versus control salt, listed as tenofovir disoproxil hemi-edisylate): very stable under stressed conditions compared to the disoproxil fumarate; also recorded: very stable under stressed conditions compared to the tenofovir disoproxil mono-edisylate | Related substances: Tenofovir disoproxil ethyl ester [1, 4]: 0.02% | Related substances: Tenofovir isopropyl isoproxil [1, 4]: 0.04% | Related substances: Tenofovir isoproxil monoester [1, 4]: 0.27% | Related substances: Tenofovir disoproxil ethyl ester [1, 5]: 0.01% | Related substances: Tenofovir isopropyl isoproxil [1, 5]: 0.04% | Related substances: Tenofovir isoproxil monoester [1, 5]: 0.30% | Related substances: Tenofovir disoproxil ethyl ester [1, 6]: 0.02% | Related substances: Tenofovir isopropyl isoproxil [1, 6]: 0.04% | Related substances: Tenofovir isoproxil monoester [1, 6]: 0.37% | Related substances: Tenofovir disoproxil ethyl ester [1, 7]: 0.01% | Related substances: Tenofovir isopropyl isoproxil [1, 7]: 0.04% | Related substances: Tenofovir isoproxil monoester [1, 7]: 0.26% | related substance generated ([1]; stressed conditions, 3rd week): 0.37 | stability superior to that of tenofovir disoproxil mono-edisylate ([1]; stressed conditions, 3rd week, related substance 0.37 vs 5.62): at least 15 times | saturation solubility ([2]; DW (Deionized Water)): 2200 | saturation solubility ([2]; pH 1.2): 2680 | saturation solubility ([2]; pH 4.0): 2280 | saturation solubility ([2]; pH 6.8): 2400 | stability depending on changes in pH [3]: stability equal to that of a conventional tenofovir disoproxil fumarate product

Related substances: Adenine [1, 4]: 0.01% | Related substances: Tenofovir isoproxil monoester [1, 4]: 0.79% | Related substances: Unspecified impurity-1 [1, 4]: 0.01% | Related substances: Unspecified impurity-2 [1, 4]: 0.09% | Related substances: Unspecified impurity-3 [1, 4]: 0.03% | Related substances: Unspecified impurity-5 [1, 4]: 0.21% | Related substances: Adenine [1, 5]: 0.01% | Related substances: Tenofovir isoproxil monoester [1, 5]: 1.26% | Related substances: Unspecified impurity-1 [1, 5]: 0.05% | Related substances: Unspecified impurity-2 [1, 5]: 0.27% | Related substances: Unspecified impurity-3 [1, 5]: 0.04% | Related substances: Unspecified impurity-4 [1, 5]: 0.04% | Related substances: Unspecified impurity-5 [1, 5]: 0.63% | Related substances: Unspecified impurity-6 [1, 5]: 0.07% | Related substances: Unspecified impurity-7 [1, 5]: 0.42% | Related substances: Adenine [1, 6]: 0.01% | Related substances: Tenofovir isoproxil monoester [1, 6]: 1.81% | Related substances: Unspecified impurity-2 [1, 6]: 0.18% | Related substances: Unspecified impurity-3 [1, 6]: 0.03% | Related substances: Unspecified impurity-5 [1, 6]: 0.21% | Related substances: Adenine [1, 7]: 0.01% | Related substances: Tenofovir isoproxil monoester [1, 7]: 0.42% | Related substances: Unspecified impurity-2 [1, 7]: 0.03% | Related substances: Unspecified impurity-3 [1, 7]: 0.02% | Related substances: Unspecified impurity-5 [1, 7]: 0.05% | solubility ([2]; aqueous buffer, pH 4.0): 13.2 mg/mL | solubility ([2]; pH 1.2, simulated gastric fluid): 39.2 mg/mL | solubility ([2]; pH 6.8, aqueous buffer): 9.4 mg/mL | solubility ([2]; DW (Deionized Water)): 13.5 mg/mL
Compound: CC(C)OC(=O)OCOP(=O)(CO[C@H](C)Cn1cnc2c(N)ncnc21)OCOC(=O)OC(C)C.O=C(O)/C=C/C(=O)O [TDF, 9-[2-(R)-[[bis[[(isopropoxycarbonyl)oxy]methoxy]phosphinoyl]methoxy]propyl]adenine fumaric acid (1:1)]

related substance generated ([1]; stressed conditions, 3rd week): 5.62
Compound: CC(C)OC(=O)OCOP(=O)(COC(C)Cn1cnc2c(N)ncnc21)OCOC(=O)OC(C)C.O=S(=O)(O)CCS(=O)(=O)O (centres unmarked) [tenofovir disoproxil mono-edisylate, Tenofovir disoproxil mono-edisylate]

Source: patent US9879038B2, “Salt of tenofovir disoproxil” (JW Pharmaceutical Corporation, priority 2014, dated 2018)
